Test results: ChEMBL document CHEMBL4219217, “Structure-activity relationship study of a series of caspase inhibitors containing γ-amino acid moiety for treatment of cholestatic liver disease” (Bioorg Med Chem Lett, 2018)
Activity calls are given as the source filed them. No cut-off for these calls is given here.

Legend:
[1] = Stability in rat plasma assessed as compound remaining level at 100 uM incubated for 2 hrs by LC-MS/MS method; format: ADME, cell-free; conditions: for remaining at 2 h, 100 µM: read-out: Stability; for Stability: 2 h, 100 µM
[2] = Stability in mouse plasma assessed as compound remaining level at 100 uM incubated for 2 hrs by LC-MS/MS method; format: ADME, cell-free
[3] = Cmax in C57BL/6J mouse at 10 mg/kg, po after 0.25 to 24 hrs by LC-MS/MS method; format: ADME, organism-based; set-up: dose 10 mg/kg, route oral; conditions: in vivo
[4] = (§1) AUC (0 to infinity) in C57BL/6J mouse at 10 mg/kg, po after 0.25 to 24 hrs by LC-MS/MS method; format: ADME, organism-based; set-up: dose 10 mg/kg, time infinity, route oral; conditions: C57BL/6J, in vivo
[5] = AUC in C57BL/6J mouse liver at 1 mg/kg, po after 0.5 to 6 hrs by LC-MS/MS method; format: ADME, organism-based; set-up: time lower 0.5 hr, dose 1 mg/kg, time upper 6 hr, route oral; conditions: in vivo
Mus musculus [6] = assay: AUC (0 to infinity) in C57BL/6J mouse at 1 mg/kg, iv after 0.25 to 24 hrs by LC-MS/MS method; format: ADME, organism-based; set-up: dose 1 mg/kg, time infinity, route intravenous; conditions: in vivo
Mus musculus [7] = assay: as §1; format: ADME, organism-based; set-up: dose 10 mg/kg, time infinity, route oral; conditions: in vivo
Rattus norvegicus [8] = assay: Reduction in serum total bilirubin level in Sprague-Dawley rat model of alpha-naphthylisothiocyanate-induced cholestatic liver disease at 6 mg/kg administered intragastrically once daily for 1 week; format: functional, organism-based
Rattus norvegicus [9] = assay: Reduction in serum direct bilirubin level in Sprague-Dawley rat model of alpha-naphthylisothiocyanate-induced cholestatic liver disease at 6 mg/kg administered intragastrically once daily for 1 week; format: functional, organism-based
Rattus norvegicus [10] = assay: Reduction in serum indirect bilirubin level in Sprague-Dawley rat model of alpha-naphthylisothiocyanate-induced cholestatic liver disease at 6 mg/kg administered intragastrically once daily for 1 week; format: functional, organism-based
Caspase-3 = biological target: T1, Caspase-3 (Homo sapiens, UniProt P42574); assay: Inhibition of Anti-Fas antibody-induced caspase-3 activity in human Jurkat E6-1 cells using Ac-DEVD-AMC substrate by fluorescence based assay; format: cell-based
T1 sequence (P42574 whole entry): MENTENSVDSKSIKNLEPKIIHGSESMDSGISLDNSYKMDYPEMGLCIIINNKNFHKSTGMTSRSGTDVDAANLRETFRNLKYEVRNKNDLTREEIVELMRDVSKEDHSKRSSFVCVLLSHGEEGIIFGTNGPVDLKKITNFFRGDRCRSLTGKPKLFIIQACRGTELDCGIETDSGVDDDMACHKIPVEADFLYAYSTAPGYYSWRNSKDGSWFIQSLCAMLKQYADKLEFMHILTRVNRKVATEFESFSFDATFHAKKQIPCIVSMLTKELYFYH

`CC(C)(C)c1ccccc1NC(=O)C(=O)N1CCC[C@@H](C(=O)N[C@@H](CC(=O)O)C(=O)COc2c(F)c(F)cc(F)c2F)C1` showed a remaining at 2 h, 100 µM [1] of 67%.

With `O=C(O)C[C@H](NC(=O)C1CCN(C(=O)OC2CCCC2)CC1)C(=O)COc1c(F)c(F)cc(F)c1F` the Stability [1] was “Stable” and the Stability [2] was “Stable”.

Work on `CC(C)(C)c1ccccc1NC(=O)C(=O)N1CCC(C(=O)N[C@@H](CC(=O)O)C(=O)COc2c(F)c(F)cc(F)c2F)CC1` yielded a remaining at 2 h, 100 µM [1] of 93%, a Cmax [3] of 1640 nM and an AUC(0-inf) [4] of 3.66 µM·h.

In the case of `O=C(O)C[C@H](NC(=O)C1CCN(C(=O)Oc2ccccc2Cl)CC1)C(=O)COc1c(F)c(F)cc(F)c1F`, the Stability [1] is reported as “Unstable” and the Stability [2] is reported as “Unstable”.

Work on `O=C(O)C[C@H](NC(=O)C1CCN(C(=O)C2CCCC2)CC1)C(=O)COc1c(F)c(F)cc(F)c1F` yielded an AUC [5] of 2219 nmol·h/kg, a Cmax [3] of 405 nM and an AUC (Mus musculus [6]) of 0.852 µM·h. For the same compound, the AUC (Mus musculus [7]) was 1.71 µM·h, the Activity (Rattus norvegicus [8]) was “Active” and the Activity (Rattus norvegicus [9]) was “Active”. For the same compound, the Activity (Rattus norvegicus [10]) was “Active”.

With `O=C(O)C[C@H](NC(=O)C1CCN(C(=O)C2CC(F)(F)C2)CC1)C(=O)COc1c(F)c(F)cc(F)c1F` the AUC [5] was 334 nmol·h/kg.

For `O=C(O)C[C@H](NC(=O)C1CCN(C(=O)c2cccs2)CC1)C(=O)COc1c(F)c(F)cc(F)c1F`, the AUC [5] was 804 nmol·h/kg.

With `C[C@H](NC(=O)C(=O)Nc1ccccc1C(C)(C)C)C(=O)N[C@@H](CC(=O)O)C(=O)COc1c(F)c(F)cc(F)c1F` [EMRICASAN] the IC50 (Caspase-3) was 6 nM, the AUC [5] was 2350 nmol·h/kg and the Cmax [3] was 227 nM. For the same compound, the AUC (Mus musculus [6]) was 0.446 µM·h and the AUC (Mus musculus [7]) was 0.197 µM·h.
